# Patent US8598339B2, “Withanolide isolated from Physalis longifolia and analogs and methods of use thereof” (University of Kansas, priority 2011, dated 2013)
# Key:
# [1] = system: squamous cell carcinoma of head and neck cells MDA1986; assay: MTS cell viability assay, MDA1986; type: cell-based; settings: Table 5
# Description: (§1) Human carcinoid cells, NCI-H727 (ATCC, Manassas, Va.), were cultured under standard conditions. Squamous cell carcinoma of head and neck cells, MDA1986 (Myers, et al. (2002) Clin. Cancer Res. 8:293) and JMAR (Swan, et al. (2003) Oral Oncol. 39:648-55); and melanoma cells lines B16F10 (ATCC, Manassas, Va.) and SKMEL28 (CLS, Eppelheim, Germany) were cultured in DMEM medium supplemented with 10% heat-inactivated fetal bovine serum (Sigma-Aldrich, St. Louis, Mo.), 1×MEM-essential amino acid, 1×MEM vitamin, and penicillin/streptomycin (Sigma-Aldrich, St. Louis, Mo.) in a humid environment of 5% CO2 at 37° C. Activity of withanolides against DRO81-1 and TT medullary thyroid cancer cells was also determined.
# (§2) Cells were cultured in 96 well plates at a concentration of 1-2×10^4 cells/mL. Cell viability was assessed with the nonradioactive cell proliferation MTS assay using Cell Titer 96AQUEOUS One Solution Reagent (PROMEGA, Madison, Wis.), according to the manufacturer's instruction. After a 72-hour treatment, 20 μL of Cell Titer 96AQUEOUS One Solution Reagent were added to each well and incubated for 3 hours at 37° C. 5% CO2, and formazan absorbance was measured at 490 nm.
# [2] = system: MRC-5; assay: MTS cell viability assay, MRC-5; type: cell-based; settings: Homo sapiens, MRC5, Table 5
# [3] = system: human melanoma SKMEL28 cells; assay: MTS cell viability assay, SKMEL28; type: cell-based; settings: Homo sapiens, SK-MEL-28, Table 5
# Description: as §1, §2
# A cell viability MTS assay was carried out to determine the anti-cancer effect of the withanolides on human melanoma SKMEL28 cells. Cells were treated for 72 hours and cell viability was determined according to the manufacturer's instruction.
# [4] = system: squamous cell carcinoma of head and neck cells JMAR; assay: MTS cell viability assay, JMAR; type: cell-based; settings: Table 5
# Description: as §1, §2
# [5] = system: melanoma cells B16F10; assay: MTS cell viability assay, B16F10; type: cell-based; settings: Mus musculus, B16-F10, Table 5
# Description: as §1, §2
# [6] = system: RET, mTOR, 4E-BP1, P70S6 kinase, akt, pERK in medullary thyroid cancer cells; assay: Mechanistic pathway protein levels in medullary thyroid cancer cells; type: cell-based; settings: for pERK / total and phosphorylated protein levels of RET, mTOR, 4E-BP1, P70S6 kinase: 24 hours, 0.25, 0.5, 1 or 3 μM
# Description: Additional analysis of X005, X032 and X033 was carried out in medullary thyroid cancer cells. […] Therefore, this analysis indicates the importance of this double bond in the A-ring to anti-cancer activity.
# [7] = system: Mia PaCa-2; assay: Pancreatic cancer cell viability, Mia PaCa-2; type: cell-based; settings: Homo sapiens, MIA PaCa2, read-out: IC50
# Description: (§3) The activity of the withanolides of this invention were tested in pancreatic cancer cells. […] Moreover, IC50 values were determined for these compounds (Table 14).
# [8] = system: HS766T; assay: Pancreatic cancer cell viability, HS766T; type: cell-based; settings: read-out: IC50
# Description: as §3
# [9] = system: heat shock factor (HSF) / HSE-luciferase in Hs766T cells; assay: HSE-luciferase reporter, Hs766T; type: cell-based; parameters: dose or concentration left out as unconfirmed; settings: heat shock 42° C. 30 minutes; recovery 8 hours
# Description: To monitor the activation of heat shock factor (HSF) and heat shock-mediated signal transduction pathways, Hs766T cells were transfected with a HSE-luciferase construct, then treated with 3 mM of the selected withanolides for 8 hours. The cells were heat shocked at 42° C. for 30 minutes and allowed to recover at 37° C. for 8 hours. Cells were lysed and luciferase activity was measured on a plate reader.
# [10] = system: Ames test strain TA100; assay: Ames test, TA100
# [11] = system: Ames test strain TA98; assay: Ames test, TA98
# [12] = system: Ames test strain TA1535; assay: Ames test, TA1535
Compound,IC50 [1] [µM],IC50 [2] [µM],IC50 [3] [µM],IC50 [4] [µM],IC50 [5] [µM],IC50 [7] [µM],IC50 [8] [µM],also measured
CC(=O)OC[C@]12C(=O)C=C[C@H](OC(C)=O)[C@]13O[C@@H]3C[C@H]1[C@@H]3CC[C@H]([C@H](C)[C@H]4CC(C)=C(C)C(=O)O4)[C@@]3(C)CC[C@@H]12 [Compound X033],0.11,0.51,0.27,0.24,0.13,,,"pERK [6]: increased at higher concentrations; total and phosphorylated protein levels of RET, mTOR, 4E-BP1, P70S6 kinase [6]: dose-dependent down-regulation; potency in pathway analysis relative to X001 ([6]; medullary thyroid cancer cells): more potent than X001"
CO[C@H]1CC(=O)[C@]2(CO)[C@H]3CC[C@]4(C)[C@@H]([C@H](C)[C@H]5CC(C)=C(CO)C(=O)O5)CC[C@H]4[C@@H]3C[C@H]3O[C@]32[C@H]1O [Compound X005],> 25,6.5,9.27,4.69,3.21,,,"RET, mTOR, 4E-BP1, p70S6 kinase and akt levels ([6]; medullary thyroid cancer cells): dose-dependent increase"
CC1=C(CO)C(=O)O[C@@H]([C@@H](C)[C@H]2CC[C@H]3[C@@H]4C[C@H]5O[C@]56[C@@H](O)[C@@H](OS(=O)(=O)O)CC(=O)[C@]6(CO)[C@H]4CC[C@]23C)C1 [Compound X017],2.02,3.33,4.8,2.25,1.33,1.4,1.8,
CC1=C(C)C(=O)O[C@@H]([C@@H](C)[C@H]2CC[C@H]3[C@@H]4C[C@H]5O[C@]56[C@@H](O)C=CC(=O)[C@]6(CO)[C@H]4CC[C@]23C)C1 (stereo in doubt) [Compound X030],,,,,,0.8,0.8,heat shock-induced increase in luciferase activity [9]: substantially reduced
"Nc1cccc2cc3ccccc3cc12 [Aminoanthracene, reference compound]",,,,,,,,"Positive Significance (− to +++) ([10]; 1.0E−05 M, TA100 +S9): +++ (Very strong positive, if p < 0.001, denoted as “+++”.); Positive Significance (− to +++) ([10]; 1.0E−05 M, TA100 −S9): −; Positive Significance (− to +++) ([11]; 1.0E−05 M, TA98 +S9): +++ (Very strong positive, if p < 0.001, denoted as “+++”.); Positive Significance (− to +++) ([11]; 1.0E−05 M, TA98 −S9): −; Positive Significance (− to +++) ([12]; 1.0E−05 M, TA1535 +S9): +++ (Very strong positive, if p < 0.001, denoted as “+++”.); Positive Significance (− to +++) ([12]; 1.0E−05 M, TA1535 −S9): −"
"O=c1c(O)c(-c2ccc(O)c(O)c2)oc2cc(O)cc(O)c12 [Quercetin, reference compound]",,,,,,,,"Positive Significance (− to +++) ([10]; 3.0E−05 M, TA100 +S9): −; Positive Significance (− to +++) ([10]; 3.0E−05 M, TA100 −S9): −; Positive Significance (− to +++) ([11]; 3.0E−05 M, TA98 +S9): +++ (Very strong positive, if p < 0.001, denoted as “+++”.); Positive Significance (− to +++) ([11]; 3.0E−05 M, TA98 −S9): +++ (Very strong positive, if p < 0.001, denoted as “+++”.); Positive Significance (− to +++) ([12]; 3.0E−05 M, TA1535 +S9): −; Positive Significance (− to +++) ([12]; 3.0E−05 M, TA1535 −S9): −"
CC(=O)O[C@H]1C=CC(=O)[C@]2(CO)[C@H]3CC[C@]4(C)[C@@H]([C@H](C)[C@H]5CC(C)=C(C)C(=O)O5)CC[C@H]4[C@@H]3C[C@H]3O[C@]132 [Compound X032],0.49,0.16,0.64,0.12,0.19,,,"pERK [6]: increased at higher concentrations; total and phosphorylated protein levels of RET, mTOR, 4E-BP1, P70S6 kinase [6]: dose-dependent down-regulation; potency in pathway analysis relative to X001 ([6]; medullary thyroid cancer cells): more potent than X001"
CC1=C(CO)C(=O)O[C@@H]([C@@H](C)[C@H]2CC[C@H]3[C@@H]4C[C@H]5O[C@]56[C@@H](O)C=CC(=O)[C@]6(C)[C@H]4[C@@H](O)C[C@]23C)C1 [Compound X004],2.64,3.6,2.99,0.77,0.49,1.3,1.6,
